Measured values as given in ChEMBL document CHEMBL1201862, “PubChem BioAssay data set” (2004).
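Cells were grown in 96-well plates and exposed to each compound for 48 hours at five concentrations; endpoints were interpolated linearly between bracketing concentrations, or set to the highest concentration if not reached. Here, GI50 denotes the concentration required for 50% inhibition of growth.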 Calls of active or inactive are those of the source. Rule as the data show it: active = GI50 up to about 1.1 µM and inactive = higher.

Columns and labels:
Test in all cases: growth of human tumour cells (NCI), 48 h
UACC-257 = system: UACC-257
PC-3 = system: PC-3
MDA-MB-435 = system: MDA-MB-435
SW-620 = system: SW-620
BT-549 = system: BT-549
SK-MEL-28 = system: SK-MEL-28
SK-MEL-2 = system: SK-MEL-2
CAKI-1 = system: CAKI-1
SF-295 = system: SF-295
RXF 393 = system: RXF 393
UACC-62 = system: UACC-62
SR = system: SR
LOX IMVI = system: LOX IMVI
ACHN = system: ACHN
SNB-19 = system: SNB-19
T47D = system: T47D
NCI/ADR-RES = system: NCI/ADR-RES
NCI-H522 = system: NCI-H522
SN12C = system: SN12C
OVCAR-3 = system: OVCAR-3

SMILES	GI50 (UACC-257)	GI50 (PC-3)	GI50 (MDA-MB-435)	GI50 (SW-620)	GI50 (BT-549)	GI50 (SK-MEL-28)	GI50 (SK-MEL-2)	GI50 (CAKI-1)	GI50 (SF-295)	GI50 (RXF 393)	GI50 (UACC-62)	GI50 (SR)	GI50 (LOX IMVI)	GI50 (ACHN)	GI50 (SNB-19)	GI50 (T47D)	GI50 (NCI/ADR-RES)	GI50 (NCI-H522)	GI50 (SN12C)	GI50 (OVCAR-3)
O=C1NC(=S)NC(=O)C1=C(O)Nc1ccccc1	38.1 µM (inactive)	15 µM (inactive)	7.98 µM (inactive)	29.2 µM (inactive)	12.1 µM (inactive)	47.9 µM (inactive)	35.9 µM (inactive)	20.8 µM (inactive)	27.7 µM (inactive)	33.2 µM (inactive)	19.5 µM (inactive)	12.8 µM (inactive)	23.3 µM (inactive)	23.6 µM (inactive)	25.8 µM (inactive)	28.2 µM (inactive)	30.5 µM (inactive)	21.7 µM (inactive)	25.8 µM (inactive)	25.5 µM (inactive)
COC(=O)c1sc(=S)sc1SCc1cccc(CSc2sc(=S)sc2C(=O)OC)c1	> 100 µM (inactive)	> 100 µM (inactive)	> 100 µM (inactive)	> 100 µM (inactive)	26.9 µM (inactive)	> 100 µM (inactive)	38.8 µM (inactive)	34.5 µM (inactive)	26 µM (inactive)	16.2 µM (inactive)	22.9 µM (inactive)	> 100 µM (inactive)	> 100 µM (inactive)	28.8 µM (inactive)	26.8 µM (inactive)	> 100 µM (inactive)	> 100 µM (inactive)	> 100 µM (inactive)	> 100 µM (inactive)	63.4 µM (inactive)
CSC1SCC2C(=O)N(C)C3(CC3C)C(=O)OCC(NC(=O)c3nc4ccccc4cc3O)C(=O)NC(C)C(=O)N(C)C1C(=O)N(C)C1(CC1C)C(=O)OCC(NC(=O)c1nc3ccccc3cc1O)C(=O)NC(C)C(=O)N2C (stereo not given)	0.1 µM (active)	< 0.0001 µM (active)	< 0.0001 µM (active)	< 0.0001 µM (active)	< 0.01 µM (active)	< 0.0001 µM (active)	< 0.0001 µM (active)	0.000871 µM (active)	< 0.0001 µM (active)	< 0.0001 µM (active)	< 0.0001 µM (active)	< 0.0001 µM (active)	< 0.0001 µM (active)	< 0.0001 µM (active)	< 0.0001 µM (active)	< 0.0001 µM (active)	0.176 µM (active)	< 0.01 µM (active)	< 0.0001 µM (active)	< 0.0001 µM (active)
COC(=O)CCCc1nc2ccccc2nc1/N=N/c1ccccc1	45.9 µM (inactive)	39.5 µM (inactive)	58.7 µM (inactive)	47.5 µM (inactive)	53.7 µM (inactive)	38.5 µM (inactive)	> 100 µM (inactive)	41.6 µM (inactive)	41 µM (inactive)	62.5 µM (inactive)	> 100 µM (inactive)	20.8 µM (inactive)	16.6 µM (inactive)	74 µM (inactive)	56 µM (inactive)	45.7 µM (inactive)	18.7 µM (inactive)	19.1 µM (inactive)	51.5 µM (inactive)	31.3 µM (inactive)
CC1NC(=O)c2c(-c3ccccc3)nn(-c3ccccc3)c2NC1=O (stereo not given)	> 100 µM (inactive)	> 100 µM (inactive)	> 100 µM (inactive)	> 100 µM (inactive)	> 100 µM (inactive)	> 100 µM (inactive)	> 100 µM (inactive)	> 100 µM (inactive)	> 100 µM (inactive)	> 100 µM (inactive)	> 100 µM (inactive)	> 100 µM (inactive)	> 100 µM (inactive)	> 100 µM (inactive)	> 100 µM (inactive)	> 100 µM (inactive)	> 100 µM (inactive)	> 100 µM (inactive)	> 100 µM (inactive)	37.4 µM (inactive)
COC(=O)[C@@H]1CS(=O)(=O)C(C(C)C)N1C(C)=O (stereo not given in full)	> 100 µM (inactive)	> 100 µM (inactive)	> 100 µM (inactive)	> 100 µM (inactive)	> 100 µM (inactive)	> 100 µM (inactive)	> 100 µM (inactive)	> 100 µM (inactive)	> 100 µM (inactive)	> 100 µM (inactive)	> 100 µM (inactive)	> 100 µM (inactive)	> 100 µM (inactive)	> 100 µM (inactive)	> 100 µM (inactive)	> 100 µM (inactive)	> 100 µM (inactive)	> 100 µM (inactive)	> 100 µM (inactive)	> 100 µM (inactive)
CCOC(=O)C(C(=O)OCC)=C1NC2(c3ccccc3Nc3ccccc32)C(C#N)S1 (stereo not given)	12.8 µM (inactive)	4.52 µM (inactive)	7.73 µM (inactive)	12.4 µM (inactive)	14.2 µM (inactive)	17 µM (inactive)	11.6 µM (inactive)	16.3 µM (inactive)	11.1 µM (inactive)	12.9 µM (inactive)	10.3 µM (inactive)	2.81 µM (inactive)	13.6 µM (inactive)	14.9 µM (inactive)	12.6 µM (inactive)	4.66 µM (inactive)	10.4 µM (inactive)	13.9 µM (inactive)	5.6 µM (inactive)	0.286 µM (active)
Nc1ccccc1-c1noc(=O)[nH]1	> 100 µM (inactive)	> 100 µM (inactive)	> 100 µM (inactive)	> 100 µM (inactive)	> 100 µM (inactive)	> 100 µM (inactive)	> 100 µM (inactive)	> 100 µM (inactive)	> 100 µM (inactive)	> 100 µM (inactive)	> 100 µM (inactive)	> 100 µM (inactive)	> 100 µM (inactive)	> 100 µM (inactive)	> 100 µM (inactive)	> 100 µM (inactive)	> 100 µM (inactive)	> 100 µM (inactive)	> 100 µM (inactive)	> 100 µM (inactive)
Cn1c2c(c3ccccc31)CCN1C(=O)C34CCCC3CC21S4 (stereo not given)	> 100 µM (inactive)	95.1 µM (inactive)	> 100 µM (inactive)	> 100 µM (inactive)	> 100 µM (inactive)	> 100 µM (inactive)	> 100 µM (inactive)	> 100 µM (inactive)	> 100 µM (inactive)	> 100 µM (inactive)	78.7 µM (inactive)	> 100 µM (inactive)	> 100 µM (inactive)	> 100 µM (inactive)	> 100 µM (inactive)	87.1 µM (inactive)	> 100 µM (inactive)	> 100 µM (inactive)	> 100 µM (inactive)	> 100 µM (inactive)
COC(=O)C(Cc1ccccc1)NS(=O)(=O)c1ccc(-c2c3nc(c(-c4ccc(S(=O)(=O)NC(Cc5ccccc5)C(=O)OC)cc4)c4ccc([nH]4)c(-c4ccc(S(=O)(=O)NC(Cc5ccccc5)C(=O)OC)cc4)c4nc(c(-c5ccc(S(=O)(=O)NC(Cc6ccccc6)C(=O)OC)cc5)c5ccc2[nH]5)C=C4)C=C3)cc1 (stereo not given)	> 100 µM (inactive)	> 100 µM (inactive)	> 100 µM (inactive)	> 100 µM (inactive)	> 100 µM (inactive)	> 100 µM (inactive)	> 100 µM (inactive)	> 100 µM (inactive)	54.6 µM (inactive)	39.4 µM (inactive)	> 100 µM (inactive)	> 100 µM (inactive)	> 100 µM (inactive)	> 100 µM (inactive)	40.9 µM (inactive)	> 100 µM (inactive)	> 100 µM (inactive)	> 100 µM (inactive)	> 100 µM (inactive)	> 100 µM (inactive)
CC12CCCCC1=C(F)C(F)(F)S2 (stereo not given)	20.1 µM (inactive)	40.7 µM (inactive)	43.3 µM (inactive)	24.5 µM (inactive)	19.1 µM (inactive)	28 µM (inactive)	75.2 µM (inactive)	21.5 µM (inactive)	41.9 µM (inactive)	20.5 µM (inactive)	42.4 µM (inactive)	15 µM (inactive)	31.8 µM (inactive)	22.1 µM (inactive)	> 100 µM (inactive)	26.7 µM (inactive)	40.1 µM (inactive)	21.5 µM (inactive)	> 57.7 µM (inactive)	19.7 µM (inactive)
CC(C)(C)OC(=O)c1ccc(NCC2=C(Br)C(=O)C=CC2=O)cc1	21.7 µM (inactive)	27.4 µM (inactive)	18.8 µM (inactive)	16.4 µM (inactive)	11.4 µM (inactive)	19.6 µM (inactive)	28.6 µM (inactive)	11.6 µM (inactive)	65.9 µM (inactive)	13.7 µM (inactive)	16.6 µM (inactive)	11.7 µM (inactive)	14.7 µM (inactive)	17.9 µM (inactive)	> 54.7 µM (inactive)	17.5 µM (inactive)	20.1 µM (inactive)	4.47 µM (inactive)	18.7 µM (inactive)	10.6 µM (inactive)
NC(=S)N/N=C/C1NCCC2CCCCC21 (stereo not given)	0.601 µM (active)	0.363 µM (active)	0.414 µM (active)	0.568 µM (active)	0.834 µM (active)	2.38 µM (inactive)	0.824 µM (active)	0.0715 µM (active)	0.0673 µM (active)	2.43 µM (inactive)	0.0452 µM (active)	0.137 µM (active)	0.221 µM (active)	0.0134 µM (active)	0.35 µM (active)	0.282 µM (active)	0.254 µM (active)	0.318 µM (active)	0.167 µM (active)	0.312 µM (active)
COc1ccc(/C=C/C(=O)c2ccccc2)cc1OC	17.3 µM (inactive)	11.3 µM (inactive)	4.59 µM (inactive)	4.23 µM (inactive)	18.2 µM (inactive)	21.1 µM (inactive)	17.3 µM (inactive)	15.7 µM (inactive)	16.4 µM (inactive)	14.3 µM (inactive)	13.4 µM (inactive)	3.15 µM (inactive)	5.46 µM (inactive)	15.5 µM (inactive)	11.2 µM (inactive)	10.8 µM (inactive)	21.2 µM (inactive)	6.85 µM (inactive)	14.6 µM (inactive)	11.4 µM (inactive)
